According to article PMC6662706, “Short amylin receptor antagonist peptides improve memory deficits in Alzheimer’s disease mouse model” (Scientific Reports, 2019):
No end group written: not given here.

Tests used:
[1] = test system: 5XFAD mice; assay: Morris Water Maze and probe test, 5XFAD and wild-type mice; format: in vivo, mouse; details: for memory task in age-matched wild-type control mice: systemic administration, ip three times a week for 5 weeks
Procedure: The determination of injection amount of R5 (200 µg/kg) was based on achieving equimolar concentrations as the full length peptide, cAC253[21] and prior studies that used pramlintide injections[22],[23]. The normal mouse circulated endogenous amylin level is 0.7 ± 0.4 pmol/L in plasma[32] and based upon our in vitro data (Fig. 1E) unlikely to perturb the function of peptides in vivo at these concentrations.
For in vivo studies, 5XFAD mouse breeding stocks were obtained from the Jackson Laboratory (JAX #006554). Intraperitoneal injection (ip) administration of fragment R5 and cAC253 was carried out in 5XFAD mice and wild-type littermate control mice (both male and female). These mice were equally and randomly distributed into 6 groups (n = 10 for each group), and received either normal saline (NS), cAC253 or R5 fragment (200 µg/kg) i.p. injections 3 times a week starting at 6 months of age for 5 weeks.
The Morris Water Maze (MWM) and probe test were carried out for behavioral testing. The mice were trained for 3 days (4 trials per day) to find a submerged platform (target quadrant, TQ). The trial ended when a mouse found and climbed onto the platform within 120s. Mice were tested with inter-trial interval of 50 min. Memory was evaluated in probe trial, administered on day 4 as the first trial of the day. During probe trial, the platform was removed from the pool. Memory for the platform location was expressed as the percent of time spent in TQ.
For in vivo experiments, intraperitoneal injection (ip) administration of fragment R5 and cAC253 was carried out in 6 month old transgenic 5XFAD mice and wild-type littermate control mice (both male and female) obtained from Dr. David Westaway (University of Alberta). These mice were equally and randomly distributed into 6 groups and 10 mice assigned for each group, Tg-NS, Tg-cAC253, Tg-R5, Wt-NS, Wt-cAC253, Wt-R5. Randomized double blind control experiment was carried out for the whole in vivo experiment, i.e. the individual administering ip injections was blinded to the identity of the drug, and the individual testing behavior was blind to the treatment being administered. […]
The MWM apparatus consisted of 2-m circular blue plastic pool filled with water (24–25°C), which was rendered opaque by the addition of non-toxic white paint. […] The behavior of a mouse was recorded by a video camera connected to a video tracking system (HVS Image 2100, HVS Image, Buckingham, UK).
The pool was surrounded by a white curtain, and a mouse was released facing the wall at points (N, E, S, W) which were chosen semi-randomly. […] Memory was evaluated in probe trial, administered on day 4 as the first trial of the day. […] Memory for the platform location was expressed as the percent of time spent in TQ.

[2] = Brain uptake of R5 compared with davalintide, wild-type and het CTR mice; format: in vivo, mouse; details: mouse, not told, ip
Procedure: For peptide R5 brain uptake in comparison to Davlintide, wild-type littermate (C57BL/6 background) mice and heterozygous CTR knockdown mice (50% CTR expression level compared to wild type control mice and presumably with 50% AMY receptor expression level) was used (n=5 in each group). Mouse brains were extracted after 2h from a single injection and fluorescence in brains was quantified as mentioned above.
Supplementary Figure S3: The comparison of brain permeability for R5 and Davalintide.

[3] = test system: hippocampal LTP (CA1); assay: Hippocampal LTP in slices from 8 month old TgCRND8 mice; set-up: species or system mouse; details: n = 6 recordings
Procedure: We examined whether the peptide fragments were capable of influencing Aβ- or hAmylin-induced reduction of hippocampal LTP in mice. Exposure of hippocampal slices from wild-type mice to hAmylin (50 nM) or Aβ (50 nM) depressed LTP induced by a weak tetanization protocol at the CA1 region as previously reported[20],[30]. To determine whether peptides affected hAmylin or Aβ- induced depression of LTP, we applied 250 nM R5 or R14 continuously for 5 min prior to exposure of the hippocampal slices to 50 nM hAmylin or Aβ and the subsequent LTP induction. […] We therefore sought to determine whether peptide fragments were also capable of improving LTP levels in the same TgCRND8 AD mouse model. […] Importantly, doses of the short peptide fragments used in these experiments were equimolar to those used for AC253 and pramlintide in our previous studies[20],[30].
For electrophysiology experiment, hippocampal slices (400-μm thick) were prepared using a vibratome from wild type and TgCRND8 mice (8 month of age, male or female). […]
Brains were quickly removed from mice following decapitation, placed in a cold artificial cerebral spinal fluid (aCSF) on a vibratome chamber, and transverse sections cut through the hippocampus. […] Before 3-TBS or drug application, the responses were monitored for at least 10 min to ensure a stable baseline of fEPSP. […]

Substance	memory task in age-matched wild-type control mice [1]	Morris Water Maze escape latencies, 5XFAD mice versus normal saline ([1]; 200 µg/kg ip three times a week for 5 weeks from 6 months of age, n = 9 mice per group)	Probe trial, quadrant preference, 5XFAD mice ([1]; 200 µg/kg ip three times a week for 5 weeks, n = 9)	brain permeability, R5 versus davalintide [2]	effect on chronically depressed LTP in TgCRND8 slices [3]
LGRLSQELHRLQTYPRTNTGSNTY-NH2 (C-terminus assumed) [AC253, reference compound]	no alterations in the memory task	–	–	–	–
SQELHRLQTYPR-NH2 [R5]	no alterations in the memory task	marked improvement in escape latencies	preference for the target quadrant	greater brain permeability	significant increase in LTP
